For test [1], the system named is A549 cells. Put plainly: Cell viability by the MTT method. Format: cell-based, human. Particulars: final concentration 100 μM, 72 hours, vs untreated, FIG. 12. As to the method: HeLa cells or A549 cells (5×10^3 cells) were inoculated onto a 96-well multiplate and treated with DAPT (final concentration: 100 μM) for 72 hours. After the 72-hour treatment, MTT diluted with PBS was added to the plate so that the final MTT concentration was 500 μg/mL, followed by culturing at 37° C. for three to four hours. Thereafter, stop solution (10% SDS, 0.01 M HCl) was added to the plate for termination of reaction, and the plate was allowed to stand still at 37° C. overnight, followed by dissolution of produced formazan. The formazan solution was uniformly mixed through pipetting, and absorbance was measured at 550 nm, to thereby calculate cell viability. […] Subsequently, in order to confirm that this reduction in cell viability was attributed to inhibition of γ-secretase activity, endogenous nicastrin of A549 cells was knocked down through treatment with nicastrin-corresponding short interference RNA (siRNA), and change in cell viability was determined. […]
Subsequently, the effect of the above-prepared antibodies on survival of A549 cells was examined. Each of the antibodies was added to A549 cells so that the final antibody concentration was 10 μg/mL, and, 96 hours after addition of the antibody, cell viability was determined through the MTT method.
On the technique in general: Formazan colour is commonly taken as a measure of viable cells.

The test system of test [2] is HeLa cells. As to the kind of experiment: Cell viability by the MTT method. Format: cell-based, human. To be noted: final concentration 100 μM, 72 hours, vs untreated, FIG. 12. The procedure:
HeLa cells or A549 cells (5×10^3 cells) were inoculated onto a 96-well multiplate and treated with DAPT (final concentration: 100 μM) for 72 hours. After the 72-hour treatment, MTT diluted with PBS was added to the plate so that the final MTT concentration was 500 μg/mL, followed by culturing at 37° C. for three to four hours. Thereafter, stop solution (10% SDS, 0.01 M HCl) was added to the plate for termination of reaction, and the plate was allowed to stand still at 37° C. overnight, followed by dissolution of produced formazan. The formazan solution was uniformly mixed through pipetting, and absorbance was measured at 550 nm, to thereby calculate cell viability. […] Subsequently, in order to confirm that this reduction in cell viability was attributed to inhibition of γ-secretase activity, endogenous nicastrin of A549 cells was knocked down through treatment with nicastrin-corresponding short interference RNA (siRNA), and change in cell viability was determined. As a result, in the case of treatment with nicastrin siRNA, cell viability was reduced by about 20%, as compared with the case of treatment with siRNA having a random sequence (scramble) (FIG. 13).

Test [3] relates to HEK/SC100G cells. Put plainly: GAL4-UAS luciferase reporter assay in living cells. Format: cell-based. To be noted: final concentration 10 μM. An excerpt:
A preproenkephalin-derived signal peptide was inserted into C99, and GAL4 (i.e., a yeast-derived transcription factor) was inserted immediately downstream of the transmembrance domain of C99, to thereby prepare a construct (SC100G). The construct (SC100G) was subcloned into pcDNA3.1/Hygro vector (Invitroger).
A UAS sequence was inserted upstream of luciferase in pGL3(R2.2) vector (Promega), to thereby prepare a construct (UAS-luc), and the construct was employed as a reporter construct. eGFP was subcloned into pcDNA3 (Invitrogen), and the thus-prepared pcDNA3-eGFP was employed as a control vector for monitoring the number of cells. […]
(§1) HEK/SC100G cells or HEK/NΔEGV cells were inoculated into a 48-well multiplate (2.5×10^4 cells). […] After culturing for 12 hours, cells and a culture supernatant were recovered, and the amount of Aβ was determined through a reporter assay or ELISA.
(§2) The recovered cells were lysed in a lysis buffer (Promega), and the resultant lysate was subjected to the reporter assay. […] The amount of luciferase luminescence was normalized by the concentration of protein (in the case of HEK/SC100G cells), or by the amount of eGFP luminescence (in the case of HEK/NΔEGV cells), to thereby yield relative light unit (RLU). […]
A general note: In a reporter assay the amount or activity of a reporter protein is the signal.

Test [4] deals with HEK/NΔEGV cells. As to the kind of experiment: GAL4-UAS luciferase reporter assay in living cells. In kind it is cell-based. To be noted: final concentration 10 μM.
Excerpt: GAL4/VP16 was bound to NΔE (including N99), in which deletion occurs in the extracellular domain of Notch receptor and which serves as a direct substrate for γ-secretase in a ligand-independent manner, to thereby prepare a construct (NΔEGV, Taniguchi Y., Karlstrom K., Lundkvist J., Mizutani T., Otaka A., Vestling M., Bernstein A., Donoviel D., Lendahl U., Honjo T.: Notch receptor cleavage depends on but is not directly executed by presenilins. Proc. Natl. Acad. Sci. U.S.A 2002, 99: 4014). The construct (NΔEGV) was subcloned into pcDNA3.1 vector (pcDNA3.1-NΔEGV). […]
as §1, §2

Regarding `C[C@H](NC(=O)Cc1cc(F)cc(F)c1)C(=O)N[C@H](C(=O)OC(C)(C)C)c1ccccc1` [DAPT], the results for the cell viability entry in test [1] and in test [2] were “significantly lower” and “no significant difference”, respectively. Further, the reporter activity entry in test [3] and in test [4] was “inhibit reporter activity” in each case.
